Several values for one entry are separate records, joined by “and”; a condition that tells them apart may be missing. Identical values can stand only once. Inconclusive results and toxic doses are left out. No stated cut-off is given here; in the data, active means T/C of 150% or more; inactive means T/C below 125%. Square brackets hold non-standard residues; d marks the D form. Peptide text beside a SMILES is read from it. * marks the point of attachment. ξ: configuration not given here. Hexanoyl = CCCCCC(=O)*; ξP = O=C(O)C1CCCN1
Tested on: L1210 leukemia ip in BDF1 mice, survival T/C
Experiment: NCI In Vivo Anticancer Drug Screen. Data for tumor model L1210 Leukemia (intraperitoneal) in B6D2F1 (BDF1) mice
Settings: endpoint: mean survival time, higher = longer survival
Method in brief: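 Transplantable tumor model; survival measured in treated vs vehicle control mice. Value = treated/control.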

[1] = dose: 50.0 mg/kg/injection, schedule: Q01DX001 (ip), vehicle: saline
[2] = dose: 100.0 mg/kg/injection, schedule: Q01DX001 (ip), vehicle: saline
[3] = dose: 200.0 mg/kg/injection, schedule: Q01DX001 (ip), vehicle: saline
[4] = dose: 400.0 mg/kg/injection, schedule: Q01DX001 (ip), vehicle: saline
[5] = dose: 400.0 mg/kg/injection, schedule: Q01DX015 (ip), vehicle: saline
[6] = dose: 100.0 mg/kg/injection, schedule: Q04DX003 (ip), vehicle: Klucel (hydroxypropylcellulose) (HPC)
[7] = dose: 200.0 mg/kg/injection, schedule: Q04DX003 (ip), vehicle: Klucel (hydroxypropylcellulose) (HPC)
[8] = dose: 400.0 mg/kg/injection, schedule: Q04DX003 (ip), vehicle: Klucel (hydroxypropylcellulose) (HPC)

Measured: T/C

CCOC(=O)C(NC(=O)C(Cc1ccc(N(CCCl)CCCl)cc1)NC(C)=O)C(C)C (centres undefined)
inactive: dose: 7.5 mg/kg/injection, schedule: Q01DX009 (ip), vehicle: alcohol 96 % of control | dose: 15.0 mg/kg/injection, schedule: Q01DX009 (ip), vehicle: alcohol 120 % of control | dose: 24.0 mg/kg/injection, schedule: Q01DX009 (ip), vehicle: carboxymethylcellulose (CMC) 96 % of control | dose: 25.0 mg/kg/injection, schedule: Q01DX009 (ip), vehicle: saline 98 % of control | dose: 30.0 mg/kg/injection, schedule: Q04DX003 (ip), vehicle: alcohol 110 % of control | dose: 36.0 mg/kg/injection, schedule: Q01DX009 (ip), vehicle: carboxymethylcellulose (CMC) 98 % of control | [1] 111 % of control | dose: 50.0 mg/kg/injection, schedule: Q01DX009 (ip), vehicle: carboxymethylcellulose (CMC) 104 % of control | dose: 50.0 mg/kg/injection, schedule: Q01DX009 (ip), vehicle: saline 101 % of control | dose: 50.0 mg/kg/injection, schedule: Q04DX003 (ip), vehicle: alcohol 110 % of control | dose: 75.0 mg/kg/injection, schedule: Q01DX009 (ip), vehicle: carboxymethylcellulose (CMC) 102 % of control | dose: 75.0 mg/kg/injection, schedule: Q04DX003 (ip), vehicle: alcohol 121 % of control | [2] 105 % of control | dose: 100.0 mg/kg/injection, schedule: Q01DX009 (ip), vehicle: saline 109 % of control | dose: 112.0 mg/kg/injection, schedule: Q01DX009 (ip), vehicle: alcohol 103 % of control and 108 % of control | dose: 112.0 mg/kg/injection, schedule: Q01DX009 (ip), vehicle: carboxymethylcellulose (CMC) 96 % of control | dose: 112.0 mg/kg/injection, schedule: Q04DX003 (ip), vehicle: alcohol 118 % of control | dose: 178.0 mg/kg/injection, schedule: Q01DX009 (ip), vehicle: carboxymethylcellulose (CMC) 107 % of control | dose: 178.0 mg/kg/injection, schedule: Q01DX015 (ip), vehicle: saline 103 % of control | [3] 105 % of control | dose: 267.0 mg/kg/injection, schedule: Q01DX009 (ip), vehicle: carboxymethylcellulose (CMC) 96 % of control | dose: 267.0 mg/kg/injection, schedule: Q01DX015 (ip), vehicle: saline 108 % of control | [4] 115 % of control | dose: 400.0 mg/kg/injection, schedule: Q01DX009 (ip), vehicle: carboxymethylcellulose (CMC) 98 % of control | [5] 106 % of control | dose: 600.0 mg/kg/injection, schedule: Q01DX009 (ip), vehicle: carboxymethylcellulose (CMC) 96 % of control | dose: 600.0 mg/kg/injection, schedule: Q01DX015 (ip), vehicle: saline 94 % of control

CCOC(=O)NN(C(=O)OCC)c1c(N)nc(N)[nH]c1=O
inactive: dose: 100.0 mg/kg/injection, schedule: Q01DX001 (ip), vehicle: Klucel (hydroxypropylcellulose) (HPC) 92 % of control | dose: 200.0 mg/kg/injection, schedule: Q01DX001 (ip), vehicle: Klucel (hydroxypropylcellulose) (HPC) 101 % of control | dose: 400.0 mg/kg/injection, schedule: Q01DX001 (ip), vehicle: Klucel (hydroxypropylcellulose) (HPC) 92 % of control

CCCCCCCCCCCCCCCC(=O)N(CCCN)CCCN
inactive: dose: 12.5 mg/kg/injection, schedule: Q01DX009 (ip), vehicle: saline with Tween-80 109 % of control | dose: 12.5 mg/kg/injection, schedule: Q04DX003 (ip), vehicle: saline 98 % of control | dose: 25.0 mg/kg/injection, schedule: Q04DX003 (ip), vehicle: saline 103 % of control | dose: 50.0 mg/kg/injection, schedule: Q04DX003 (ip), vehicle: saline 101 % of control

O=C1SCCC1NP(=O)(OCc1ccccc1)OCc1ccccc1 (centres undefined)
inactive: dose: 100.0 mg/kg/injection, schedule: Q01DX001 (ip), vehicle: saline with Tween-80 102 % of control | dose: 200.0 mg/kg/injection, schedule: Q01DX001 (ip), vehicle: saline with Tween-80 102 % of control | dose: 400.0 mg/kg/injection, schedule: Q01DX001 (ip), vehicle: saline with Tween-80 98 % of control

CCOCc1nc(N)nc(N)c1-c1ccc(Cl)c(Cl)c1
inactive: dose: 100.0 mg/kg/injection, schedule: Q01DX001 (ip), vehicle: carboxymethylcellulose (CMC) 97 % of control | dose: 200.0 mg/kg/injection, schedule: Q01DX001 (ip), vehicle: carboxymethylcellulose (CMC) 89 % of control | dose: 400.0 mg/kg/injection, schedule: Q01DX001 (ip), vehicle: carboxymethylcellulose (CMC) 108 % of control

CC12C=CC(CC1)C2O (centres undefined)
inactive: dose: 100.0 mg/kg/injection, schedule: Q01DX009 (ip), vehicle: saline with Tween-80 105 % of control | dose: 100.0 mg/kg/injection, schedule: Q04DX003 (ip), vehicle: saline with Tween-80 100 % of control | dose: 200.0 mg/kg/injection, schedule: Q01DX009 (ip), vehicle: saline with Tween-80 96 % of control | dose: 200.0 mg/kg/injection, schedule: Q04DX003 (ip), vehicle: saline with Tween-80 96 % of control | dose: 400.0 mg/kg/injection, schedule: Q04DX003 (ip), vehicle: saline with Tween-80 98 % of control

O=C(N/N=C/c1ccccc1)c1cc([N+](=O)[O-])cc([N+](=O)[O-])c1
inactive: [6] 90 % of control | [7] 108 % of control | [8] 101 % of control

CCCCCC(=O)NCC(=O)N1CCCC1C(=O)O (centres undefined) (Hexanoyl-Gly-[ξP]-OH)
inactive: [2] 95 % of control | [3] 107 % of control | [4] 98 % of control

CNC1(c2ccccc2)CC2CCC(C2)C1O (centres undefined)
inactive: [2] 98 % of control | [6] 101 % of control | [3] 106 % of control | [7] 104 % of control | [4] 101 % of control | [8] 108 % of control

Cc1cc2nc3[nH]c4ccccc4c3nc2cc1C
inactive: dose: 12.5 mg/kg/injection, schedule: Q01DX015 (ip), vehicle: saline 98 % of control | dose: 25.0 mg/kg/injection, schedule: Q01DX015 (ip), vehicle: saline 87 % of control | [1] 91 % of control | dose: 50.0 mg/kg/injection, schedule: Q01DX015 (ip), vehicle: saline 115 % of control | [2] 94 % of control | dose: 100.0 mg/kg/injection, schedule: Q01DX015 (ip), vehicle: saline 120 % of control | [3] 91 % of control | dose: 200.0 mg/kg/injection, schedule: Q01DX015 (ip), vehicle: saline 108 % of control and 90 % of control | [4] 97 % of control | [5] 104 % of control | dose: 800.0 mg/kg/injection, schedule: Q01DX001 (ip), vehicle: saline 103 % of control | dose: 800.0 mg/kg/injection, schedule: Q01DX015 (ip), vehicle: saline 87 % of control

C/C(=C(/CCO)SCCC(=O)c1ccccc1)N(C=O)Cc1cnc(C)nc1N
inactive: dose: 100.0 mg/kg/injection, schedule: Q04DX003 (ip), vehicle: saline 101 % of control | dose: 200.0 mg/kg/injection, schedule: Q04DX003 (ip), vehicle: saline 93 % of control | dose: 400.0 mg/kg/injection, schedule: Q04DX003 (ip), vehicle: saline 93 % of control

Cc1ccc(NC(=O)Nc2cc([N+](=O)[O-])ccc2F)cc1C
inactive: [6] 101 % of control | [7] 98 % of control | [8] 101 % of control

COc1c(O)c(O)cc2c[n+]3ccccc3c(C)c12
inactive: dose: 50.0 mg/kg/injection, schedule: Q01DX009 (ip), vehicle: Klucel (hydroxypropylcellulose) (HPC) 95 % of control

O=C(O)C1c2ccccc2Cc2ccccc21
inactive: dose: 100.0 mg/kg/injection, schedule: Q01DX009 (ip), vehicle: Klucel (hydroxypropylcellulose) (HPC) 110 % of control | [6] 103 % of control | dose: 200.0 mg/kg/injection, schedule: Q01DX009 (ip), vehicle: Klucel (hydroxypropylcellulose) (HPC) 101 % of control | [7] 97 % of control | [8] 106 % of control

c1c[nH]c(C2Nc3ccccc3S2)c1 (centres undefined)
inactive: [2] 93 % of control | [3] 95 % of control

O=[N+]([O-])c1ccc(Br)o1
inactive: dose: 6.25 mg/kg/injection, schedule: Q04DX003 (ip), vehicle: saline with Tween-80 110 % of control | dose: 12.5 mg/kg/injection, schedule: Q04DX003 (ip), vehicle: saline with Tween-80 101 % of control | dose: 25.0 mg/kg/injection, schedule: Q04DX003 (ip), vehicle: saline with Tween-80 105 % of control

CC(C)OC(=O)c1cc(C(=O)OC(C)C)cc(S(N)(=O)=O)c1
inactive: dose: 100.0 mg/kg/injection, schedule: Q01DX001 (ip), vehicle: other 106 % of control | dose: 200.0 mg/kg/injection, schedule: Q01DX001 (ip), vehicle: other 98 % of control | dose: 400.0 mg/kg/injection, schedule: Q01DX001 (ip), vehicle: other 95 % of control

From PubChem BioAssay AID248 (DTP/NCI, 2004)
